Where a name gives a salt, the structure may show the parent alone. Where only a bound is given, the exact number is not on record here.

T1 sequence (P21836 32-614): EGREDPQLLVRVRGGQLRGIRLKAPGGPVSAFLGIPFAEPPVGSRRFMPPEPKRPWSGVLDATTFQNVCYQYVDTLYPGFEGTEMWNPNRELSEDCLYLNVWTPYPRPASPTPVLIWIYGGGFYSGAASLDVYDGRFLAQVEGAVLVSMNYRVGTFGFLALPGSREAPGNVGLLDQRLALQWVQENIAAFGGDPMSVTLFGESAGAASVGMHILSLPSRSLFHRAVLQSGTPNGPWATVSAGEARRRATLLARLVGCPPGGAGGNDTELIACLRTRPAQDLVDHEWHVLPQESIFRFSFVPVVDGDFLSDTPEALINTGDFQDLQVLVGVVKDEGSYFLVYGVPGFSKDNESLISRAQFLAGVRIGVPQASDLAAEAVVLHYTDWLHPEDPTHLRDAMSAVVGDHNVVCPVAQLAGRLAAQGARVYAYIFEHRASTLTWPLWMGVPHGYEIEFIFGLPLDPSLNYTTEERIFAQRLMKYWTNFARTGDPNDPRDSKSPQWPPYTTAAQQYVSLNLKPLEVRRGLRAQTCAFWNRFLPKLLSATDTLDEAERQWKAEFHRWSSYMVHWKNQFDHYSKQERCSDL

The first assay has as its target T1, acetylcholinesterase (Mus musculus, UniProt P21836).
T1 construct: A mouse brain homogenate was used as an acetylcholinesterase source; from tissue; host or cells: mouse brain homogenate
The assay is described as follows: biochemical. The assay is classed as biochemical.
Conditions: not given
`O=C1c2cccnc2CN1CCC1CCN(Cc2ccccc2)CC1` [Example 5, 2-[4'-(1'-Benzylpiperidine)ethyl]-2,3-dihydro-1-oxypyrrolo[3,4-b]pyridine dihydrochloride] registered a half-inhibitory concentration (IC50) of 100 nM.
With `COc1cc2c(cc1OC)C(=O)N(CCC1CCN(Cc3ccccc3)CC1)C2` [Example 6, 2-[4'-Benzylpiperidine)ethyl]-2,3-dihydro-5,6-dimethoxyoxypyrrolo[3,4-]benzene hydrochloride], the half-inhibitory concentration (IC50) stood at 17 nM.
Same read-out and setting: the figure for `CN1CC(=O)N(CCC2CCN(Cc3ccccc3)CC2)c2ccccc2C1` [Example 9, 1-[4'-(1'-Benzylpiperidine)ethyl-1,2,3,4-tetrahydro-4-methyl-5H-[1,4]-benzodiazepin-2-one dihydrochloride] is 51 nM; for `O=C1CCCc2ccccc2N1CCC1CCN(Cc2ccccc2)CC1` [Example 10, 1-[4'-(1'-Benzylpiperidine)ethyl]-1,2,3,4-tetrahydro-5H-1-benzazepin-2-one hydrochloride] it is 9 nM.
In the case of `CN1c2ccccc2C(=O)N(CCC2CCN(Cc3ccccc3)CC2)c2ccccc21` [Example 12, 10-[4'-(1'-Benzylpiperidine)ethyl]-10,11-dihydro-5-methyl-5H-dibenzo[b,e][1,4]diazepin-11-one hydrochloride], half-maximal inhibition (IC50) was put at 40 nM.
In turn, `O=C(NCCC1CCN(Cc2ccc(O)cc2)CC1)c1cnc2ccccc2n1` [Example 14, N-[4'-(1'-(p-Hydroxybenzyl)piperidine)ethyl]-2-quinoxalinecarboxylic amide hydrochloride] registered a half-inhibitory concentration (IC50) of 38 nM.
The molecule `COc1cc(OC)cc(N(CCC2CCN(Cc3ccccc3)CC2)C(=O)C=Cc2ccc(F)cc2)c1` [Example 18, N-(3'5'-Dimethoxyphenyl)-N-[4'-(1'--benzylpiperidyl)-ethyl]-4-fluorocinnamamide hydrichloride] registered an IC50 of 680 nM.
The molecule `O=C(NCC1CCN(Cc2ccccc2)C1)c1ccccc1` (stereo not shown) [Example 21, N-[3'-(1'-Benzylpyrrolidine)methyl]benzamide hydrochloride] yielded a concentration for half-maximal inhibition (IC50) of 50000 nM.
With `O=C(NCCC1CCN(Cc2ccccc2)CC1)c1ccoc1` [Example 24, N-[4'-(1'-Benzylpiperidine)ethyl]-3-furancarboxylic amide hydrochloride], the midpoint of inhibition, the IC50, lay at 1100 nM.
On the same count and under the same terms, the figure for `O=C(CCCC1CCN(Cc2ccccc2)CC1)c1ccncc1` [Example 45] is 360 nM; for `O=C(CCC1CCN(Cc2ccccc2)CC1)Nc1ccncc1` [Example 48] it is 19 nM; for `COc1ccc2c(c1)CCCC(=O)N2CCC1CCN(Cc2ccccc2)CC1` [Example 62] it is 7.5 nM.
On to `COc1cccc2c1CCCC(=O)N2CCC1CCN(Cc2ccccc2)CC1` [Example 65], for which 1.6 nM corresponded to half-maximal inhibition (IC50).
As for `COc1cc2c(cc1OC)C(=O)N(C)C(CCC1CCN(Cc3ccccc3)CC1)C2` (stereo not shown) [Example 67], the half-inhibitory concentration (IC50) came to 100 nM.
In turn, `CN1CC(=O)N(CCC2CCN(Cc3ccccc3)CC2)c2ccccc2C1=O` [Example 70] displayed a concentration for half-maximal inhibition (IC50) of 280 nM.
The same measure, in the same setting: the figure for `CCOC(=O)c1nccnc1C(=O)NCCC1CCN(Cc2ccccc2)CC1` [Example 72] is 20 nM; for `O=C(c1cnccn1)N(CCC1CCN(Cc2ccccc2)CC1)c1ccccc1` [Example 95] it is 85 nM.
`CC(=O)N(CCC1CCN(Cc2ccccc2)CC1)c1ccncc1` [Example 101] displayed an IC50 of 110 nM.
On the same count and under the same terms, the figure for `CN(CCC1CCN(Cc2ccccc2)CC1)C(=O)c1ccco1` [Example 120] is 190 nM; for `O=C(NCCC1CCN(Cc2ccco2)CC1)c1ccccc1` [Example 124] it is 2800 nM.
As to `O=C1c2ccccc2Oc2ccccc2N1CCC1CCN(Cc2ccccc2)CC1` [Example 176], the IC50 stood at 4 nM.
On the same count and under the same terms, the same measure for `CCOC(=O)N1CCC(CC2Cc3cc(OC)c(OC)cc3C2=O)CC1` (stereo not shown) [Example 182, 4-[(5,6-Dimethoxy-1-indanon)-2-yl]methyl-1-ethoxycarbonylpiperidine]: 800 nM; for `CCOC(=O)N1CCC(CC2=Cc3cc(OC)c(OC)cc3C2=O)CC1` [Example 183, 4-[(5,6-Dimethoxy-1-indenon)-2-yl]methyl-1-ethoxycarbonylpiperidine]: 5300 nM.
Still for that read-out and setting: the same measure for `O=C1C(=CC2CCN(Cc3ccccc3)CC2)C(=O)c2ccccc21` [Example 184, 1-Benzyl-4-[(1,3-indanedion)-2-ylidenyl]methylpiperidine]: over 5000 nM.
`COc1cc2c(cc1OC)CC(CC1CCN(Cc3ccccc3)CC1)=C2` [Example 185, 1-Benzyl-4-[(5,6-dimethoxyinden)-2-yl]methylpiperidine hydrochloride] returned an IC50 of 0.82 nM.
On to `COc1cc2c(cc1OC)C(=O)C(=CCCC1CCN(Cc3ccccc3)CC1)C2` [Example 186, 1-Benzyl-4-[3-[(5,6-dimethoxy-1-indanon)-2-ylidenyl]]propylpiperidine hydrochloride], for which the IC50 amounted to 1.5 nM.
The same measure, in the same setting: the same measure for `COc1cc2c(cc1OC)C(=O)C(CCCC1CCN(Cc3ccccc3)CC1)C2` (stereo not shown) [Example 187, 1-Benzyl-4-[3-[(5,6-dimethoxy-1-indanon)-2-yl]]propylpiperidine hydrochloride]: 4400 nM.

The same assay, now with this note: in vitro, mouse brain homogenate; Table 10; read-out: Inhibitory activity on AChE IC50.
For the molecule `COc1cc2c(cc1OC)C(=O)C(CC1CCNCC1)C2` (stereo not shown) [Example 179, 4-[(5,6-Dimethoxy-1-indanon)-2-yl]methylpiperidine hydrochloride], the IC50 was 5400 nM.

The assay is the same for the next values; noted with them: read-out: AChE inhibitory activity IC50.
Turning to `O=C1Nc2ccccc2CN1CCC1CCN(Cc2ccccc2)CC1` [Example 8], the IC50 was 13 nM.
In the case of `O=C1c2ccccc2CCc2ccccc2N1CCC1CCN(Cc2ccccc2)CC1` [Example 11, N-[4-(1'-Benzylpiperidyl)ethyl]-5,6,11,12-tetrahydrodibenzo[b,f]azocin-6-one hydrochloride], the IC50 was 68 nM.
Consider `CC(=O)N(CCC1CCN(Cc2ccccc2)CC1)c1ccccc1` [Example 17, N-[4'-(1'-Benzylpiperidyl)ethyl]acetanilide], for which the IC50 was 52 nM.
In the case of `O=C(CCC1CCN(Cc2ccccc2)CC1)Nc1ccccc1` [Example 20, 4-(1-Benzylpiperidine)propanailide hydrochloride], the IC50 was found to be 540 nM.
Turning to `COc1ccc(C(=O)CCCC2CCN(Cc3ccccc3)CC2)cc1` [Example 23, 4-[4'-N-Benzyl)piperidyl]-p-methoxybutyrophenone hydrochloride], the IC50 is 72 nM.
For `CN(CCC1CCN(CC2CCCCC2)CC1)C(=O)c1ccccc1` [Example 27, N-[4'-(1'-Cyclohexylmethylpiperidyl)ethyl]-N-methylbenzamide hydrochloride], the half-maximal inhibitory concentration (IC50) came to 410 nM.
As for `COc1cc2c(c(OC)c1)C(=O)C(CC1CCN(Cc3ccccc3)CC1)C2` (stereo not shown) [Example 31], the IC50 amounted to 25 nM.
Take `O=C1c2ccccc2NCN1CCC1CCN(Cc2ccccc2)CC1` [Example 52]: the half-maximal inhibitory concentration (IC50) was 800 nM.
As to `O=C1c2ccccc2CCN1CCC1CCN(Cc2ccccc2)CC1` [Example 54], the IC50 was 1000 nM.
Take `O=C1Cc2ccccc2CN1CCC1CCN(Cc2ccccc2)CC1` [Example 56]: the IC50 came to 17 nM.
For `O=C(c1ccc(F)cc1)N(CCC1CCN(Cc2ccccc2)CC1)c1ccccc1` [Example 89], the half-inhibitory concentration (IC50) worked out at 18 nM.

The assay is the same for the next values; noted with them: read-out: Inhibitory activity on AChE IC50.
Turning to `COc1cc2c(cc1OC)C(=O)C(CC1CCN(Cc3cccc(F)c3)CC1)C2` (stereo not shown) [Example 180, 1-(3-Fluorobenzyl)-4-[(5,6-dimethoxy-1-indanon)-2-yl]methylpiperidine hydrochloride], the IC50 turned out to be 1 nM.
